Assay results reported in patent US20230102520A1, “INHIBITORS OF LOW MOLECULAR WEIGHT PROTEIN TYROSINE PHOSPHATASE (LMPTP) AND USES THEREOF” (Sanford Burnham Prebys Medical Discovery Institute, priority 2019, published 2023).

target: T1, human LMPTP-A (Homo sapiens, UniProt P24666); assay: Enzyme Assay of Inhibition of LMPTP-A; format: biochemical; conditions: phosphatase assay, OMFP or pNPP substrate, 50 mM Bis-Tris pH 6.0, 37° C.
T1 sequence (P24666 1-158): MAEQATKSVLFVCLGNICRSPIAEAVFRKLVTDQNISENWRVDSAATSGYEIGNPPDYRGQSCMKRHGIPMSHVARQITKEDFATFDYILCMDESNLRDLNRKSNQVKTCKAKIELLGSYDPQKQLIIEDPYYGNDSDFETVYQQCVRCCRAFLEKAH
Method: Example B-1: Enzyme Assay of Inhibition of LMPTP-A
Phosphatase assays were performed in buffer containing 50 mM Bis-Tris, pH 6.0, 1 mM DTT and 0.01% Triton X-100 at 37° C. For assays conducted with 3-O-methylfluorescein phosphate (OMFP) as substrate, fluorescence was monitored continuously at λex=485 and λem=525 nm. For assays conducted with para-nitrophenylphosphate (pNPP) as substrate, the reaction was stopped by addition of 2× reaction volume of 1 M NaOH, and absorbance was measured at 405 nm. IC50 values of compounds disclosed herein were determined from plots of inhibitor concentration versus percentage of enzyme activity. For inhibitor selectivity assays, each PTP was incubated with either 0.4 mM OMFP or 5 mM pNPP in the presence of 40 μM compound or DMSO. […] For the inhibitor reversibility assay, 50 nM human LMPTP-A was pre-incubated with 10 μM of compound disclosed herein or DMSO for 5 min. The enzyme was diluted 100× in phosphatase assay buffer containing 0.4 mM OMFP and fluorescence was measured at the indicated time points.

Molecule	IC50 [nM]
Nc1ncn(Cc2c(Br)cncc2Br)c2nc(-c3ccccc3)nc1-2 [3-[(3,5-dibromo(4-pyridyl))methyl]-8-phenyl-3-hydropurine-6-ylamine]	< 1000
Nc1ncn(Cc2c(Cl)cncc2Cl)c2nc(C3C4CC5CC(C4)CC3C5)nc1-2 (stereo not drawn) [8-adamantan-2-yl-3-[(3,5-dichloro(4-pyridyl))methyl]-3-hydropurine-6-ylamine]	< 1000
Nc1ncn(Cc2c(Cl)cncc2Cl)c2nc(-c3cccc4c3CCCC4)nc1-2 [3-[(3,5-dichloro(4-pyridyl))methyl]-8-(5,6,7,8-tetrahydronaphthyl)-3-hydropurine-6-ylamine]	> 20000
Nc1ncn(Cc2c(Cl)ccnc2Cl)c2nc(C3C4CC5CC(C4)CC3C5)nc1-2 (stereo not drawn) [8-adamantan-2-yl-3-[(2,4-dichloro(3-pyridyl))methyl]-3-hydropurine-6-ylamine]	< 1000
COc1cncc(OC)c1Cn1cnc(N)c2nc(-c3ccccc3C)nc1-2 [3-[(3,5-dimethoxy(4-pyridyl))methyl]-8-(2-methylphenyl)-3-hydropurine-6-ylamine]	< 1000
Nc1ncn(Cc2c(Cl)cncc2Cl)c2nc(-c3cnccc3C(F)(F)F)nc1-2 [3-[(3,5-dichloro(4-pyridyl))methyl]-8-[4-(trifluoromethyl)(3-pyridyl)]-3-hydropurine-6-ylamine]	< 1000
Cc1ccccc1-c1nc2c(N)nc(C)n(Cc3c(Cl)ccnc3Cl)c-2n1 [3-[(2,4-dichloro(3-pyridyl))methyl]-2-methyl-8-(2-methylphenyl)-3-hydropurine-6-ylamine]	1000 to 20000
COc1nccc(I)c1Cn1cnc(N)c2nc(-c3ccccc3)nc1-2 [3-[(4-iodo-2-methoxy(3-pyridyl))methyl]-8-phenyl-3-hydropurine-6-ylamine]	< 1000
Nc1ncn(Cc2c(Cl)cncc2Cl)c2nc(-c3ccc4[nH]cnc4c3)nc1-2 [8-benzimidazol-5-yl-3-[(3,5-dichloro(4-pyridyl))methyl]-3-hydropurine-6-ylamine]	< 1000
Nc1ncn(Cc2c(Cl)cncc2Cl)c2nc(-c3cc(F)ccc3F)nc1-2 [3-[(3,5-dichloro(4-pyridyl))methyl]-8-(2,5-difluorophenyl)-3-hydropurine-6-ylamine]	< 1000
COc1cccc(OC)c1-c1nc2c(N)ncn(Cc3c(Cl)cnc(Cl)c3Cl)c-2n1 [8-(2,6-dimethoxyphenyl)-3-[(2,3,5-trichloro(4-pyridyl))methyl]-3-hydropurine-6-ylamine]	< 1000
Nc1ncn(Cc2c(Cl)cncc2Cl)c2nc(-c3ccc4ccoc4c3)nc1-2 [8-benzo[3,4-b]furan-6-yl-3-[(3,5-dichloro(4-pyridyl))methyl]-3-hydropurine-6-ylamine]	< 1000
Cc1ccccc1-c1nc2c(N)ncn(Cc3cncc(Cl)c3)c-2n1 [3-[(5-chloro(3-pyridyl))methyl]-8-(2-methylphenyl)-3-hydropurine-6-ylamine]	< 1000
3-[(3,5-dichloro(4-pyridyl))methyl]-8-(2-5,6,7,8-tetrahydronaphthyl)-3-hydropurine-6-ylamine	< 1000
Nc1ncn(Cc2c(Cl)cncc2Cl)c2nc(-c3ccc4occc4c3)nc1-2 [8-benzo[b]furan-5-yl-3-[(3,5-dichloro(4-pyridyl))methyl]-3-hydropurine-6-ylamine]	< 1000
Cc1cc(-c2nc3c(N)ncn(Cc4c(Cl)ccnc4Cl)c-3n2)n(C)n1 [3-[(2,4-dichloro(3-pyridyl))methyl]-8-(1,3-dimethylpyrazol-5-yl)-3-hydropurine-6-ylamine]	< 1000
Nc1ncn(Cc2c(Cl)cncc2Cl)c2nc(-c3nc4ccccc4[nH]3)nc1-2 [8-benzimidazol-2-yl-3-[(3,5-dichloro(4-pyridyl))methyl]-3-hydropurine-6-ylamine]	< 1000
Nc1ncn(Cc2c(Br)cncc2Br)c2nc(-c3ccc4c(c3)CCCC4)nc1-2 [3-[(3,5-dibromo(4-pyridyl))methyl]-8-(2-5,6,7,8-tetrahydronaphthyl)-3-hydropurine-6-ylamine]	< 1000
Cc1ccccc1-c1nc2c(N)ncn(Cc3c(C)ccnc3C)c-2n1 [3-[(2,4-dimethyl(3-pyridyl))methyl]-8-(2-methylphenyl)-3-hydropurine-6-ylamine]	< 1000
Nc1ccncc1-c1nc2c(N)ncn(Cc3c(Cl)cncc3Cl)c-2n1 [8-(4-amino(3-pyridyl))-3-[(3,5-dichloro(4-pyridyl))methyl]-3-hydropurine-6-ylamine]	1000 to 20000
Nc1ncn(Cc2c(Br)cncc2Br)c2nc(-c3cccc4c3CCCC4)nc1-2 [3-[(3,5-dibromo(4-pyridyl))methyl]-8-(5,6,7,8-tetrahydronaphthyl)-3-hydropurine-6-ylamine]	> 20000

Molecule	IC50 [nM]
Cc1ccccc1-c1nc2c(N)ncn(Cc3c(Cl)cnc(Cl)c3Cl)c-2n1 [8-(2-methylphenyl)-3-[(2,3,5-trichloro(4-pyridyl))methyl]-3-hydropurine-6-ylamine]	< 1000
Nc1ncn(Cc2c(Cl)cncc2Cl)c2nc(Cc3ccc(F)cc3)nc1-2 [3-[(3,5-dichloro(4-pyridyl))methyl]-8-[(4-fluorophenyl)methyl]-3-hydropurine-6-ylamine]	< 1000
Cc1ccnc(C)c1Cn1cnc(N)c2nc(-c3ccccc3)nc1-2 [3-[(2,4-dimethyl(3-pyridyl))methyl]-8-phenyl-3-hydropurine-6-ylamine]	< 1000
COc1cccc(OC)c1-c1nc2c(N)ncn(Cc3c(Cl)ncc(Cl)c3Cl)c-2n1 [8-(2,6-dimethoxyphenyl)-3-[(2,4,5-trichloro(3-pyridyl))methyl]-3-hydropurine-6-ylamine]	< 1000
Nc1ncn(Cc2c(Cl)cncc2Cl)c2nc(-c3ccn4nccc4c3)nc1-2 [3-[(3,5-dichloro(4-pyridyl))methyl]-8-(8-hydropyrazolo[1,5-a]pyridin-5-yl)-3-hydropurine-6-ylamine]	< 1000
Cc1cc(-c2nc3c(N)ncn(Cc4c(Cl)cncc4Cl)c-3n2)n(C)n1 [3-[(3,5-dichloro(4-pyridyl))methyl]-8-(1,3-dimethylpyrazol-5-yl)-3-hydropurine-6-ylamine]	< 1000
Cc1ccccc1-c1nc2c(N)ncn(Cc3cccnc3C)c-2n1 [3-[(2-methyl(3-pyridyl))methyl]-8-(2-methylphenyl)-3-hydropurine-6-ylamine]	< 1000
Cc1ccccc1-c1nc2c(N)ncn(Cc3ccncc3F)c-2n1 [3-[(3-fluoro(4-pyridyl))methyl]-8-(2-methylphenyl)-3-hydropurine-6-ylamine]	< 1000
Cc1ccccc1-c1nc2c(N)ncn(Cc3c(Cl)ccnc3Cl)c-2n1 [3-[(2,4-dichloro(3-pyridyl))methyl]-8-(2-methylphenyl)-3-hydropurine-6-ylamine]	< 1000
Nc1ncn(Cc2c(Cl)ccnc2F)c2nc(-c3ccccc3)nc1-2 [3-[(4-chloro-2-fluoro(3-pyridyl))methyl]-8-phenyl-3-hydropurine-6-ylamine]	< 1000
Cc1ccccc1-c1nc2c(N)nc(C)n(Cc3c(Br)cnn3C)c-2n1 [3-[(4-bromo-1-methylpyrazol-5-yl)methyl]-2-methyl-8-(2-methylphenyl)-3-hydropurine-6-ylamine]	1000 to 20000
Cc1ccccc1-c1nc2c(N)ncn(Cc3ccncc3Cl)c-2n1 [3-[(3-chloro(4-pyridyl))methyl]-8-(2-methylphenyl)-3-hydropurine-6-ylamine]	< 1000
Cc1ccccc1-c1nc2c(N)nc(C)n(Cc3c(Br)cncc3Br)c-2n1 [3-[(3,5-dibromo(4-pyridyl))methyl]-2-methyl-8-(2-methylphenyl)-3-hydropurine-6-ylamine]	1000 to 20000
CCN(CC)Cc1nc2c(N)ncn(Cc3c(Cl)cncc3Cl)c-2n1 [({6-amino-3-[(3,5-dichloro(4-pyridyl))methyl](3-hydropurin-8-yl)}methyl)diethylamine]	1000 to 20000
Nc1ncn(Cc2sccc2Cl)c2nc(-c3ccccc3)nc1-2 [3-[(3-chloro(2-thienyl))methyl]-8-phenyl-3-hydropurine-6-ylamine]	< 1000
Cc1ccccc1-c1nc2c(N)nc(C)n(Cc3c(Cl)cncc3Cl)c-2n1 [3-[(3,5-dichloro(4-pyridyl))methyl]-2-methyl-8-(2-methylphenyl)-3-hydropurine-6-ylamine]	1000 to 20000
Cc1ccccc1-c1nc2c(N)ncn(Cc3c(Br)cnn3C)c-2n1 [3-[(4-bromo-1-methylpyrazol-5-yl)methyl]-8-(2-methylphenyl)-3-hydropurine-6-ylamine]	< 1000
Cc1ccccc1-c1nc2c(N)ncn(Cc3c(Cl)ccnc3F)c-2n1 [3-[(4-chloro-2-fluoro(3-pyridyl))methyl]-8-(2-methylphenyl)-3-hydropurine-6-ylamine]	< 1000
Cc1ccccc1-c1nc2c(N)ncn(Cc3scnc3C)c-2n1 [3-[(4-methyl(1,3-thiazol-5-yl))methyl]-8-(2-methylphenyl)-3-hydropurine-6-ylamine]	< 1000
Cc1ccccc1-c1nc2c(N)ncn(Cc3c(Br)cncc3Br)c-2n1 [3-[(3,5-dibromo(4-pyridyl))methyl]-8-(2-methylphenyl)-3-hydropurine-6-ylamine]	< 1000
Cc1ccccc1-c1nc2c(N)ncn(Cc3c(Br)ccnc3Cl)c-2n1 [3-[(4-bromo-2-chloro(3-pyridyl))methyl]-8-(2-methylphenyl)-3-hydropurine-6-ylamine]	< 1000
